Values joined by “and” are separate entries in the source; they are usually repeats but may differ in a detail not shown here. Identical values can stand only once.
Legend:
[1] = Liquid
[2] = xn = mol fraction of the nth substance listed; conditions: Liquid, x2 = 0

C1CCCCC1 [cyclohexane]
mass density [kg/m3], [1]
Conditions | 101.33 kPa | 5000 kPa | 10000 kPa | 20000 kPa | 30000 kPa | 40000 kPa
293.15 K | 778.8 | 782.8 | 786.6 | 793.9 | 801 | 807.8
298.15 K | 773.9 | 778.3 | 782.3 | 789.8 | 796.7 | 802.9
303.15 K | 769.3 | 773.6 | 777.8 | 785.7 | 792.8 | 799.2
308.15 K | 764.5 | 769 | 773.4 | 781.5 | 788.8 | 795.5
313.15 K | 759.7 | 764.5 | 768.9 | 777.4 | 784.8 | 791.8

C1CCCCC1 [cyclohexane] + COC(=O)OC
mass density [kg/m3], [2]
Conditions | 100 kPa | 5000 kPa | 10000 kPa | 20000 kPa | 30000 kPa | 40000 kPa
293.15 K | 778.8 | 782.8 | 786.6 | 793.9 | 801 | 807.8
298.15 K | 773.9 | 778.3 | 782.3 | 789.8 | 796.7 | 802.9
303.15 K | 769.3 | 773.6 | 777.8 | 785.7 | 792.8 | 799.2
308.15 K | 764.5 | 769 | 773.4 | 781.5 | 788.8 | 795.5
313.15 K | 759.7 | 764.5 | 768.9 | 777.4 | 784.8 | 791.8

COC(=O)OC [dimethyl carbonate]
mass density, [1]
Conditions | 101.33 kPa | 5000 kPa | 10000 kPa | 20000 kPa | 30000 kPa | 40000 kPa
293.15 K | 1069.8 kg/m3 | 1074.4 kg/m3 | 1078.6 kg/m3 | 1086.9 kg/m3 | 1094.5 kg/m3 | 1101.9 kg/m3
298.15 K | 1063.2 kg/m3 | 1068 kg/m3 | 1072.4 kg/m3 | 1080.8 kg/m3 | 1088.7 kg/m3 | 1096.2 kg/m3
303.15 K | 1056.5 kg/m3 | 1061.3 kg/m3 | 1066 kg/m3 and 1065 kg/m3 | 1074.7 kg/m3 | 1082.9 kg/m3 | 1090.4 kg/m3
308.15 K | 1049.8 kg/m3 | 1054.6 kg/m3 | 1059.4 kg/m3 | 1068.5 kg/m3 | 1077 kg/m3 | 1084.8 kg/m3
313.15 K | 1043 kg/m3 | 1048.1 kg/m3 | 1053 kg/m3 | 1062.3 kg/m3 | 1071 kg/m3 | 1079 kg/m3
